Experimental findings from US7087035B2 (priority 1999, dated 2006) are described below.

For this series the following is noted: stretched and non-stretched groups; systems removed at 24 and 48 hours.

Source text: In one group of 12 hairless guinea pigs the skin of one flank was stretched manually bi-directionally ( ? and ? ) before application of a foam double adhesive ring having a thickness of 0.8 mm ( 1/32 inch) with a 2 cm^2 hole in the middle which would later contain the drug. The bi-directional stretching was estimated to achieve a skin tension of between 0.1 and 1 M Pa. The adhesive ring served to keep the skin under the drug compartment in the stretched configuration. Next, a 2 cm^2 stainless steel microprotrusion array having trapezoidal microprotrusions with microprotrusion lengths of 430 μm and a microprotrusion density of 241 microprotrusions/cm^2 was applied to the skin beneath the drug compartment using an approximately 2 kg/cm^2 normal manual pressure. The microprotrusion array was held for a few seconds and then removed.
A second group of 12 hairless guinea pigs were treated in the same way, except that the skin was not stretched. At 12, 24, and 48 hours after application four systems from each group were removed and residual drug was washed from the skin.

For the compound `NCCCC[C@H](N[C@@H](CCc1ccccc1)C(=O)O)C(=O)N1CCC[C@H]1C(=O)O` [lisinopril], the “drug flux after 12 hours” value is reported as “no drug flux in either group”.
